Assay results reported in US10688111B2, “Liquid formulations of compounds active at sulfonylurea receptors” (Biogen Chesapeake LLC, priority 2008, dated 2020).
Converted amounts (≈) assume the structure as drawn.

Experiments:
physchem = assay: physchem
Procedure: The solubility of glibenclamide was tested in various solutions and at various pH.

[1] = Glibenclamide solubility in infusion fluids by HPLC, excess drug shaken 24 hours (Table 4); type: physicochemical; details: thermodynamic from solid, 24 hours ambient
Procedure: The solubility of glibenclamide was determined by high pressure liquid chromatography (HPLC) in a variety of infusion fluids. Excess glibenclamide was shaken with the vehicle for 24 hours at ambient temperature and the glibenclamide content of the supernatant determined by HPLC.
The following infusion vehicles were assessed in these experiments:
1.) 0.9% NaCl at the lowest end of the pH specification (pH 4.5) containing a 50-fold dilution of the PEG/ethanol/meglumine 10 mM pH 9.0 formulation.
2.) 0.9% NaCl at the lowest end of the pH specification (pH 4.5) containing a 50-fold dilution of the PEG/ethanol/diethanolamine 10 mM pH 9.0 formulation.
3.) 0.9% NaCl at the lowest end of the pH specification (pH 4.5) containing a 50-fold dilution of the PEG/ethanol/TRIS 10 mM pH 9.0 formulation.
4.) 0.9% NaCl at the lowest end of the pH specification (pH 4.5).
5.) 0.9% NaCl at the highest end of the pH specification (pH 7.0).
6.) 0.9% NaCl ‘as is’ (pH 5.8).
7.) 0.9% NaCl at the lowest end of the pH specification (pH 4.5) containing a 50-fold dilution of the PEG/ethanol formulation (without buffer or pH adjustment).
8.) 0.9% NaCl at the highest end of the pH specification (pH 7.0) containing a 50-fold dilution of the PEG/ethanol formulation (without buffer or pH adjustment).

[2] = pH after 50-fold dilution of glibenclamide 1 mg/ml concentrate into Hartmann's or NaCl; type: physicochemical; details: 1 mg/ml in PEG/Ethanol/Buffer (4/1/5)
Procedure: This was found even for experiments in which the concentration of buffer was reduced to 5 mM. In order to determine the final pH of diluted solutions resulting from high pH solutions having high concentrations of SUR-active compounds, measurements of the pH of glibenclamide solutions at various levels of dilution were made. […]

[3] = Stability of glibenclamide injection formulations on storage; type: physicochemical; details: formulation with 5 mM meglumine at pH 9
Procedure: Glibenclamide stability was investigated by storing several formulations under different conditions for long periods of time. In particular, glibenclamide formulations suitable for injection were stored for up to six months and stability data for these formulations was obtained over that period of time.
This study assessed the relative stability of 4 batches of glibenclamide formulations suitable for injection. The following studies were conducted.
All storage cabinets were continually monitored for temperature and humidity using calibrated probes. After removal from long-term storage, all samples were stored at 2-8° C. protected from light while awaiting analysis.
At each time point, 2 vials of glibenclamide injections will be removed from the storage cabinet from the appropriate conditions and allowed to equilibrate to ambient temperature. This will be used to perform the analyses described above and will be stored under normal laboratory conditions throughout the duration of the analyses.
The formulations were inspected visually for appearance and for the presence of particulates. The pH of duplicate samples from separate vials was measured to determine formulation pH and to track changes, if any, over the course of time during the stability experiments.

[4] = Glibenclamide solubility at various pH in PEG 300/ethanol/meglumine buffer (Table 2, FIG. 1); type: physicochemical; details: for solubility: aqueous with cosolvent or surfactant or cyclodextrin
Procedure: The solubility of glibenclamide was measured at various pH levels in the presence of different amounts of the buffer meglumine in solutions containing 40% PEG 300, 10% ethanol, and 50% water. […] The pH of the meglumine buffer was adjusted down from pH 11 to the target pH range of between about pH 8 to about pH 10.

COc1ccc(Cl)cc1C(=O)NCCc1ccc(S(=O)(=O)NC(=O)NC2CCCCC2)cc1 [Glibenclamide, N-p-(2-[5-Chloro-2-methoxybenzamido]ethyl) benzenesulfonyl-N′-cyclohexylurea]
solubility (physchem; pH 5.3, aqueous buffer, Solubility): 10 µg/mL (≈ 20.2 µM) | solubility (physchem; pH 6.2, aqueous buffer, Solubility): 10 µg/mL (≈ 20.2 µM) | solubility (physchem; pH 6.6, water, Solubility): 70 µg/mL (≈ 142 µM) | solubility (physchem; pH 6.9): 60 µg/mL (≈ 121 µM) | solubility (physchem; pH 6.9, aqueous with cosolvent or surfactant or cyclodextrin, Solubility): 90 µg/mL (≈ 182 µM) | solubility (physchem; pH 7.1, aqueous buffer, Solubility): 10 µg/mL (≈ 20.2 µM) | solubility (physchem; pH 7.2, aqueous with cosolvent or surfactant or cyclodextrin, Solubility): 80 µg/mL (≈ 162 µM) | solubility (physchem; pH 7.6, aqueous with cosolvent or surfactant or cyclodextrin, Solubility): 600 µg/mL (≈ 1210 µM) | solubility (physchem; pH 7.7, aqueous with cosolvent or surfactant or cyclodextrin, Solubility): 10 µg/mL (≈ 20.2 µM) | solubility (physchem; pH 9.7): 860 µg/mL (≈ 1740 µM) | solubility (physchem; pH 9.7, aqueous buffer, Solubility): 860 µg/mL (≈ 1740 µM) | solubility (physchem; pH 9.7, aqueous with cosolvent or surfactant or cyclodextrin, Solubility): 18300 µg/mL (≈ 37000 µM) | solubility (physchem; pH 9.8): 11200 µg/mL (≈ 22700 µM) | solubility (physchem; pH 9.8, aqueous with cosolvent or surfactant or cyclodextrin, Solubility): 14600 µg/mL (≈ 29700 µM) | solubility (physchem; pH 10.1): 2350 µg/mL (≈ 4760 µM) | solubility (physchem; pH 10.1, aqueous buffer, Solubility): 2350 µg/mL (≈ 4760 µM) | solubility (physchem; pH 10.5): 15650 µg/mL (≈ 31700 µM) | solubility (physchem; pH 10.5, aqueous with cosolvent or surfactant or cyclodextrin, Solubility): 13400 µg/mL (≈ 27200 µM) | solubility (physchem; pH 10.7, aqueous buffer, Solubility): 8120 µg/mL (≈ 16400 µM) | solubility (physchem; pH 10.7, aqueous with cosolvent or surfactant or cyclodextrin, Solubility): 13900 µg/mL (≈ 28200 µM) | solubility at 24 h ([1]; 0.9% NaCl infusion fluid, pH 7.8, saline or isotonic, 0.9% NaCl 'as is' (pH 5.8), actual pH 7.80): 150 µg/mL (≈ 304 µM) | solubility at 24 h ([1]; 0.9% NaCl infusion fluid, saline or isotonic, 0.9% NaCl at pH 4.5, actual pH 7.72): 80 µg/mL (≈ 162 µM) | solubility at 24 h ([1]; 0.9% NaCl infusion fluid, saline or isotonic, 0.9% NaCl at pH 7.0, actual pH 7.75): 120 µg/mL (≈ 243 µM) | solubility at 24 h ([1]; pH 7.9, saline or isotonic, NaCl at pH 7.0 + PEG/EtOH, no buffer (50-fold dilution), actual pH 7.90): 140 µg/mL | solubility at 24 h ([1]; saline or isotonic, NaCl at pH 4.5 + PEG/EtOH, no buffer (50-fold dilution), actual pH 7.64): 100 µg/mL | solubility at 24 h ([1]; saline or isotonic, NaCl at pH 4.5 + PEG/EtOH/Diethanolamine 10 mM, pH 9.0 (50-fold dilution), actual pH 8.19): 130 µg/mL | solubility at 24 h ([1]; saline or isotonic, NaCl at pH 4.5 + PEG/EtOH/Meglumine 10 mM, pH 9.0 (50-fold dilution), actual pH 7.92): 150 µg/mL | solubility at 24 h ([1]; saline or isotonic, NaCl at pH 4.5 + PEG/EtOH/TRIS 10 mM, pH 9.0 (50-fold dilution), actual pH 7.89): 150 µg/mL | pH after a 50-fold Dilution ([2]; Diethanolamine 5 mM pH 8, into Hartmann's pH 6.48 (Expt1)): 6.71 | pH after a 50-fold Dilution ([2]; Diethanolamine 5 mM pH 8, into Hartmann's pH 6.60): 7.99 | pH after a 50-fold Dilution ([2]; Diethanolamine 5 mM pH 8, into NaCl pH 4.59): 7.27 | pH after a 50-fold Dilution ([2]; Diethanolamine 5 mM pH 8, into NaCl pH 6.82): 8.32 | pH after a 50-fold Dilution ([2]; Diethanolamine 5 mM pH 8.5, into Hartmann's pH 6.48, Expt 2): 6.82 | pH after a 50-fold Dilution ([2]; Diethanolamine 5 mM pH 9, into Hartmann's pH 6.48 (Expt1)): 7.54 | pH after a 50-fold Dilution ([2]; Diethanolamine 5 mM pH 9, into Hartmann's pH 6.48, Expt 2): 7.29 | pH after a 50-fold Dilution ([2]; Diethanolamine 5 mM pH 9, into NaCl pH 6.82): 8.65 | pH after a 50-fold Dilution ([2]; Diethanolamine 5 mM pH 9.5, into Hartmann's pH 6.48 (Expt1)): 6.73 | pH after a 50-fold Dilution ([2]; Diethanolamine 5 mM pH 9.5, into Hartmann's pH 6.48, Expt 2): 8.37 | pH after a 50-fold Dilution ([2]; Diethanolamine 5 mM pH 9.5, into Hartmann's pH 6.60): 8.85 | pH after a 50-fold Dilution ([2]; Diethanolamine 5 mM pH 9.5, into NaCl pH 4.59): 8.72 | pH after a 50-fold Dilution ([2]; Diethanolamine 5 mM pH 9.5, into NaCl pH 6.82): 8.88 | pH after a 50-fold Dilution ([2]; Diethanolamine 5 mM pH 10, into Hartmann's pH 6.48): 8.46 | pH after a 50-fold Dilution ([2]; Diethanolamine 10 mM pH 9, into Hartmann's pH 6.48): 8.38 | pH after a 50-fold Dilution ([2]; Diethanolamine 10 mM pH 9, into NaCl pH 4.59): 8.46 | pH after a 50-fold Dilution ([2]; Diethanolamine 10 mM pH 10, into Hartmann's pH 6.48): 8.88 | pH after a 50-fold Dilution ([2]; Diethanolamine 10 mM pH 10, into NaCl pH 6.82): 9.31 | pH after a 50-fold Dilution ([2]; Meglumine 5 mM pH 8, into Hartmann's pH 6.48 (Expt1)): 6.66 | pH after a 50-fold Dilution ([2]; Meglumine 5 mM pH 8, into Hartmann's pH 6.60): 6.55 | pH after a 50-fold Dilution ([2]; Meglumine 5 mM pH 8, into NaCl pH 4.59): 6.56 | pH after a 50-fold Dilution ([2]; Meglumine 5 mM pH 8, into NaCl pH 6.82): 8.21 | pH after a 50-fold Dilution ([2]; Meglumine 5 mM pH 8.5, into Hartmann's pH 6.48, Expt 2): 6.64 | pH after a 50-fold Dilution ([2]; Meglumine 5 mM pH 9, into Hartmann's pH 6.48 (Expt1)): 6.8 | pH after a 50-fold Dilution ([2]; Meglumine 5 mM pH 9, into Hartmann's pH 6.48, Expt 2): 6.96 | pH after a 50-fold Dilution ([2]; Meglumine 5 mM pH 9, into NaCl pH 6.82): 8.40 | pH after a 50-fold Dilution ([2]; Meglumine 5 mM pH 9.5, into Hartmann's pH 6.48 (Expt1)): 6.93 | pH after a 50-fold Dilution ([2]; Meglumine 5 mM pH 9.5, into Hartmann's pH 6.48, Expt 2): 7.68 | pH after a 50-fold Dilution ([2]; Meglumine 5 mM pH 9.5, into Hartmann's pH 6.60): 8.49 | pH after a 50-fold Dilution ([2]; Meglumine 5 mM pH 9.5, into NaCl pH 4.59): 8.04 | pH after a 50-fold Dilution ([2]; Meglumine 5 mM pH 9.5, into NaCl pH 6.82): 8.71 | pH after a 50-fold Dilution ([2]; Meglumine 5 mM pH 10, into Hartmann's pH 6.48): 8.32 | pH after a 50-fold Dilution ([2]; Meglumine 10 mM pH 9, into Hartmann's pH 6.48): 7.37 | pH after a 50-fold Dilution ([2]; Meglumine 10 mM pH 9, into NaCl pH 4.59): 6.35 | pH after a 50-fold Dilution ([2]; Meglumine 10 mM pH 10, into Hartmann's pH 6.48): 8.98 | pH after a 50-fold Dilution ([2]; Meglumine 10 mM pH 10, into NaCl pH 6.82): 9.54 | hydrolysis on storage ([3]; refrigerated samples stored at 2-8° C., FIG. 3A): hydrolysis was not seen | physical stability (drug in solution) on storage ([3]; stored at 2-8° C.): remained in solution | hydrolysis on storage ([3]; stored at elevated temperatures (25° C./60% RH, 40° C./75% RH), FIGS. 3B, 3C): some hydrolysis | solubility change with pH (FIG. 1) ([4]; 40% PEG 300, 10% ethanol, 50% water, meglumine buffer, basic pH values greater than about pH 8): greatly increased | solubility ([4]; PEG 300/ethanol/meglumine buffer solution, PEG 300/Ethanol/20 mM Meglumine 40%/10%/50% (final 10 mM), nominal pH 8.5, actual pH 5.4): 100 µg/mL (≈ 202 µM) | solubility ([4]; PEG 300/ethanol/meglumine buffer solution, PEG 300/Ethanol/20 mM Meglumine 40%/10%/50% (final 10 mM), nominal pH 9.0, actual pH 5.6): 130 µg/mL (≈ 263 µM) | solubility ([4]; PEG 300/ethanol/meglumine buffer solution, PEG 300/Ethanol/20 mM Meglumine 40%/10%/50% (final 10 mM), nominal pH 9.5, actual pH 6.4): 120 µg/mL (≈ 243 µM) | solubility ([4]; PEG 300/ethanol/meglumine buffer solution, PEG 300/Ethanol/100 mM Meglumine 40%/10%/50% (final 50 mM), nominal pH 9.5, actual pH 7.7): 410 µg/mL (≈ 830 µM) | solubility ([4]; PEG 300/ethanol/meglumine buffer solution, PEG 300/Ethanol/100 mM Meglumine 40%/10%/50% (final 50 mM), nominal pH 10.0, actual pH 8.8): 2740 µg/mL (≈ 5550 µM) | solubility ([4]; 40% PEG 300, 10% ethanol, 50% water with meglumine buffer, nominal pH 9 (pH 8.8)): 2700 µg/mL (≈ 5470 µM) | solubility ([4]; PEG 300/Ethanol/20 mM Meglumine 40%/10%/50% (final 10 mM), nominal pH 10.0, actual pH 6.9): 980 µg/mL (≈ 1980 µM) | solubility ([4]; PEG 300/Ethanol/50 mM Meglumine 40%/10%/50% (final 25 mM), nominal pH 8.0, actual pH 5.2): 160 µg/mL (≈ 324 µM) | solubility ([4]; PEG 300/Ethanol/50 mM Meglumine 40%/10%/50% (final 25 mM), nominal pH 9.5, actual pH 6.6): 90 µg/mL (≈ 182 µM) | solubility ([4]; PEG 300/Ethanol/50 mM Meglumine 40%/10%/50% (final 25 mM), nominal pH 10.0, actual pH 7.8): 360 µg/mL (≈ 729 µM) | solubility ([4]; PEG 300/Ethanol/100 mM Meglumine 40%/10%/50% (final 50 mM), nominal pH 8.0, actual pH 5.3): 90 µg/mL (≈ 182 µM) | solubility ([4]; PEG 300/Ethanol/100 mM Meglumine 40%/10%/50% (final 50 mM), nominal pH 8.5, actual pH 5.5): 100 µg/mL (≈ 202 µM) | solubility ([4]; PEG 300/Ethanol/100 mM Meglumine 40%/10%/50% (final 50 mM), nominal pH 9.0, actual pH 6.2): 100 µg/mL (≈ 202 µM)
